In brackets after ≈: the same amount, converted by molar mass. Bounds are passed on as bounds.

Consider four molecules from PMC7893776, “Selecting an anti-malarial clinical candidate from two potent dihydroisoquinolones” (Malaria Journal, 2021).

Data set [1] can be described thus: Parallel artificial membrane permeability assay (PAMPA). In kind it is in vitro ADME. As to the method: The assay was conducted using a Biomek FX lab automation workstation (Beckman Coulter, Inc., Fullerton, CA) with PAMPA evolution 96 command software (pION Inc., Woburn, MA). Test compound stock (10 mM in DMSO, 3 µL) was mixed with citrate phosphate buffered saline (597 µL) to make diluted test compound. Diluted test compound (150 µL) was transferred to a UV plate (pION Inc., Woburn, MA) and the UV spectrum (250–500 nm) was read as the reference plate. Each well of the donor plate in a PAMPA sandwich plate (pION Inc., Woburn, MA) contained a filter that was painted on one side with 4 µL GIT lipid (pION Inc., Woburn, MA) to form a membrane. Each well in the acceptor plate in a PAMPA sandwich, preloaded with magnetic stir bars, was filled with acceptor solution buffer (200 µL, pION Inc., Woburn, MA). The donor plate was filled with diluted test compound (180 µL). The combined PAMPA plate was placed on a pIon Gut-box™ and stirred for 30 min. The UV spectrum (250–500 nm) of the donor and the acceptor were read. The permeability coefficient and recovery were calculated using PAMPA evolution 96 command software (pION Inc., Woburn, MA) based on the whole spectrum measured from the reference plate, the donor plate, and the acceptor plate. All compounds were tested in triplicate.
In general terms: In PAMPA a lipid-coated filter parts donor from acceptor wells.

Data set [2] can be described thus: LogP, Gemini Profiler titration. Format: physicochemical. As to the method:
LogP was measured using a Gemini Profiler instrument (pION Inc., Billerica, MA). 1–2 mg of compound was dissolved in octanol (0.5 mL) in a test tube. The test tube was purged with argon and a magnetic stir bar was added. The solution was treated with aqueous KCl (2.5 mL, 0.15 M) and stirred for 10 min. The pH was adjusted to 2 by addition of aqueous HCl (0.5 M). The resulting solution was titrated by adding aqueous KOH (0.5 M) in small aliquots (controlled by the Gemini Profiler software), until the pH reached 12. The volume of each addition and the corresponding pH of the test solution were recorded. Data were processed using pS software. The data points were fitted to a Bjerrum plot to achieve the best GOF (goodness of fitness) and a logP value was obtained. All measurements were conducted in triplicate.

The test system of data set [3] is dog plasma proteins. The data set is described as follows: Plasma protein binding (RED), dog. Format: in vitro ADME. To be noted: average of 20, 4, 0.8 µM. As to the method:
A Rapid Equilibrium Dialysis (RED) Plate (Thermo Scientific, catalog #, PI-90007) was used to determine the percentage of compound binding to plasma proteins. The positive control for this experiment was propranolol-HCl (10 mM in DMSO) and the internal standard was warfarin (2 µM in methanol). 10 mM stocks of compound in DMSO were diluted with DMSO acetonitrile (1:4, v:v) to three different intermediate concentrations: high (2 mM), medium (0.4 mM) and low (0.08 mM). A 10 mM stock of propranolol in DMSO was diluted to 0.4 mM concentration in DMSO:acetonitrile (1:4 v:v). In 16 Eppendorf tubes, the control (10 µL) or each of three compound dilutions (10 µL) were each added to separate aliquots of mouse, rat, dog, and human plasma (990 µL). In the RED plate, potassium phosphate buffer (500 µL, 0.1 M, pH 7.4, 37 °C) was placed in every white well and each plasma/compound mixture was added to each of 3 red wells. […] The compounds and internal standard were detected by selected ion recording (SIR). Using the peak area ratio of compound to warfarin from the SIR spectra, the percentage of free compound [1] and bound compound [2] were calculated using the following equations: (1) % free = (concentration buffer chamber/concentration plasma chamber)*100, and (2) % bound = 100 − % free.

A short description of data set [4]: Thermodynamic solubility. In kind it is physicochemical. To be noted: for solubility thermodynamic: 37 °C, thermodynamic from solid. As to the method:
Solubility was also evaluated in fasted (FaSSIF-V2) or fed (FeSSIF-V2) state simulated intestinal fluids. These media contain lipolysis breakdown products (glycerol monooleate and oleic acid) in addition to bile salt (sodium taurocholate) and phospholipid (lecithin) and were buffered to simulate approximate pH conditions found in the fasted (pH 6.5) or fed (pH 5.8) state small intestine. Control media (blank FaSSIF-V2 and FeSSIF-V2 buffers) lacking bile salt, phospholipid and lipolysis products were also investigated.
Compounds were weighed into individual screw cap polypropylene tubes and aqueous buffer, 0.1 N HCl, or simulated intestinal fluid added to provide a compound concentration of between 700 and 5000 μg/mL. Samples were vortexed, placed in a 37 °C incubator, and mixed on an orbital shaker (IKA® VXR basic Vibrax® orbital shaker) set at 600 rpm. Samples were regularly examined to ensure excess solid was present. Sampling was conducted after 1, 4, 6, and 24 h by centrifuging each sample at 10,000 rpm for 3 min, transferring a 200 µL aliquot into fresh Eppendorf tubes, and centrifuging again at 10,000 rpm for 3 min. Duplicate aliquots of the final supernatant were removed and diluted to an appropriate analytical concentration in 50% aqueous methanol prior to analysis by HPLC. HPLC analysis was conducted on a Waters 2695 HPLC system coupled to a Waters 2487 dual absorbance wavelength detector, analyzing at 254 nm. A Phenomenex Luna C18(2) column (3 µm, 50 × 2.0 mm i.d.) was used for analysis, with the column temperature maintained at 40 °C. Concentrations were quantified by comparison to a calibration curve prepared over the concentration range in 50% aqueous methanol. The mobile phase consisted of water, methanol, and 1% aqueous formic acid. Separations were conducted using a flow rate of 0.4 mL/min and an injection volume of 5 µL. Processed samples were maintained in the autosampler at a temperature of 10 °C.

For the molecule `N#Cc1cc(NC(=O)C2c3ccccc3C(=O)N(CC(F)(F)F)C2c2cn[nH]c2)ccc1F` (racemic) [(r)-SJ311], the “Permeability, PAMPA” value was 17 ± 2.3 10^–6 cm/s in data set [1] (pH 3), 15 ± 6.7 10^–6 cm/s in data set [1] (pH 5) and 9.4 ± 7.0 10^–6 cm/s in data set [1] (pH 7.4). Moreover, in data set [2], the LogP is reported as 1.24 ± 0.28 (logP( +)). In addition, the “% bound” value in data set [3] stood at 90.0 ± 1.0%.

On to `N#Cc1cc(NC(=O)C2c3ccccc3C(=O)N(CC(F)(F)F)C2c2cccnc2)ccc1F` (racemic) [(r)-SJ733], for which the “Permeability, PAMPA” value in data set [1] (pH 3) was 66 ± 3.5 10^–6 cm/s; in data set [1] (pH 5), 380 ± 7.2 10^–6 cm/s; in data set [1] (pH 7.4), 350 ± 130 10^–6 cm/s. For the same molecule, the LogP in data set [2] is 2.95 ± 0.03 (logP( +)). Moreover, in data set [3], the “% bound” value is reported as 88.3 ± 3.1%.

Regarding `N#Cc1cc(NC(=O)[C@H]2c3ccccc3C(=O)N(CC(F)(F)F)[C@@H]2c2cccnc2)ccc1F` (racemic) [SJ733], the solubility (thermodynamic) in data set [4] (0.1 N HCl, pH 1, simulated gastric fluid, strongly acidic conditions) is above 3000 µg/mL; in data set [4] (aqueous buffer, pH 7.4, 6.5, and 5.8 aqueous buffers), 81 to 237 µM.

With `N#Cc1cc(NC(=O)[C@H]2c3ccccc3C(=O)N(CC(F)(F)F)[C@@H]2c2cccnc2)ccc1F` [(+)-SJ733], the Solubility was determined as 6817 µM (≈ 3190 µg/mL) in data set [4] (0.1 N HCl pH 1, 37°C, 1 h); 7321 µM (≈ 3430 µg/mL) in data set [4] (0.1 N HCl pH 1, 37°C, 4 h); 7376 µM (≈ 3450 µg/mL) in data set [4] (0.1 N HCl pH 1, 37°C, 6 h); 7891 µM (≈ 3700 µg/mL) in data set [4] (0.1 N HCl pH 1, 37°C, 24 h); 81 µM (≈ 37.9 µg/mL) in data set [4] (FaSSIF blank pH 6.5, 37°C, 1 h); 92 µM (≈ 43.1 µg/mL) in data set [4] (FaSSIF blank pH 6.5, 37°C, 4 h). The Solubility stood at 96 µM (≈ 45 µg/mL) in data set [4] (FaSSIF blank pH 6.5, 37°C, 6 h); 100 µM (≈ 46.8 µg/mL) in data set [4] (FaSSIF blank pH 6.5, 37°C, 24 h); 199 µM (≈ 93.2 µg/mL) in data set [4] (FaSSIF-V2 pH 6.5, 37°C, 1 h); 216 µM (≈ 101 µg/mL) in data set [4] (FaSSIF-V2 pH 6.5, 37°C, 4 h); 207 µM (≈ 97 µg/mL) in data set [4] (FaSSIF-V2 pH 6.5, 37°C, 24 h); 83 µM (≈ 38.9 µg/mL) in data set [4] (FeSSIF blank pH 5.8, 37°C, 1 h). For the same molecule, the Solubility in data set [4] (FeSSIF blank pH 5.8, 37°C, 4 h) stood at 88 µM (≈ 41.2 µg/mL); in data set [4] (FeSSIF blank pH 5.8, 37°C, 6 h), 100 µM (≈ 46.8 µg/mL); in data set [4] (FeSSIF blank pH 5.8, 37°C, 24 h), 107 µM (≈ 50.1 µg/mL); in data set [4] (FeSSIF-V2 pH 5.8, 37°C, 1 h) it was 237 µM (≈ 111 µg/mL); in data set [4] (FeSSIF-V2 pH 5.8, 37°C, 4 h) it was 250 µM (≈ 117 µg/mL); in data set [4] (FeSSIF-V2 pH 5.8, 37°C, 24 h), 248 µM (≈ 116 µg/mL). In addition, the Solubility was determined as 207 µM (≈ 97 µg/mL) in data set [4] (Phosphate buffer pH 7.4, 37°C, 1 h); 250 µM (≈ 117 µg/mL) in data set [4] (Phosphate buffer pH 7.4, 37°C, 4 h); 250 µM (≈ 117 µg/mL) in data set [4] (Phosphate buffer pH 7.4, 37°C, 24 h).

Broadly, the solubility (thermodynamic) is solubility found after equilibrating the solid with the medium. As usually defined, the Solubility is the dissolved amount per volume that the medium holds. Low values mean little dissolved substance, high ones much dissolved substance.
